# Reference: ChEMBL document CHEMBL3044631, “Synthesis of 2-[4,5-dimethyl-1-(phenylamino)-1H-imidazol-2-ylthio]-N-(thiazole-2-yl)acetamide derivatives and their anticancer activities” (2013)
# Assays:
# Assay type in all cases: functional
# [1] = system: ACHN; assay: Anticancer activity against Homo sapiens (human) ACHN cells assessed as cell growth promotion at 10 uM after 48 hr by SRB assay
# [2] = system: HCT-116; assay: Anticancer activity against Homo sapiens (human) HCT116 cells assessed as cell growth promotion at 10 uM after 48 hr by SRB assay
# [3] = system: ACHN; assay: Anticancer activity against Homo sapiens (human) ACHN cells after 48 hr by SRB assay
# [4] = system: SK-MEL-28; assay: Anticancer activity against Homo sapiens (human) SK-MEL-28 cells assessed as cell growth promotion at 10 uM after 48 hr by SRB assay
# [5] = system: SNB-75; assay: Anticancer activity against Homo sapiens (human) SNB75 cells assessed as cell growth promotion at 10 uM after 48 hr by SRB assay
# [6] = system: 786-0; assay: Anticancer activity against Homo sapiens (human) 786-0 cells after 48 hr by SRB assay; conditions: 786-0, 48 h
# [7] = system: CCRF-CEM; assay: Anticancer activity against Homo sapiens (human) CCRF-CEM cells assessed as cell growth promotion at 10 uM after 48 hr by SRB assay
# [8] = system: OVCAR-8; assay: Anticancer activity against Homo sapiens (human) OVCAR8 cells after 48 hr by SRB assay; conditions: OVCAR-8, 48 h
# [9] = system: TK-10; assay: Anticancer activity against Homo sapiens (human) TK10 cells after 48 hr by SRB assay; conditions: TK-10, 48 h
# [10] = system: HL-60(TB); assay: Anticancer activity against Homo sapiens (human) HL-60(TB) cells assessed as cell growth promotion at 10 uM after 48 hr by SRB assay
# [11] = system: SN12C; assay: Anticancer activity against Homo sapiens (human) SN12C cells after 48 hr by SRB assay
# [12] = system: HCC 2998; assay: Anticancer activity against Homo sapiens (human) HCC2998 cells assessed as cell growth promotion at 10 uM after 48 hr by SRB assay
# [13] = system: MOLT-4; assay: Anticancer activity against Homo sapiens (human) MOLT4 cells assessed as cell growth promotion at 10 uM after 48 hr by SRB assay
# [14] = system: A549; assay: Anticancer activity against Homo sapiens (human) A549/ATCC cells assessed as cell growth promotion at 10 uM after 48 hr by SRB assay
# [15] = system: SK-MEL-5; assay: Anticancer activity against Homo sapiens (human) SK-MEL-5 cells assessed as cell growth promotion at 10 uM after 48 hr by SRB assay
# [16] = system: Malme-3M; assay: Anticancer activity against Homo sapiens (human) MALME-3M cells after 48 hr by SRB assay
# [17] = system: NCI-H226; assay: Anticancer activity against Homo sapiens (human) NCI-H226 cells assessed as cell growth promotion at 10 uM after 48 hr by SRB assay
# [18] = system: SK-OV-3; assay: Anticancer activity against Homo sapiens (human) SKOV3 cells after 48 hr by SRB assay; conditions: SK-OV-3, 48 h
# [19] = system: MDA-MB-468; assay: Anticancer activity against Homo sapiens (human) MDA-MB-468 cells after 48 hr by SRB assay; conditions: MDA-MB-468, 48 h
# [20] = system: SF-295; assay: Anticancer activity against Homo sapiens (human) SF295 cells assessed as cell growth promotion at 10 uM after 48 hr by SRB assay
# [21] = system: RXF 393; assay: Anticancer activity against Homo sapiens (human) RXF393 cells assessed as cell growth promotion at 10 uM after 48 hr by SRB assay
# [22] = system: SK-MEL-2; assay: Anticancer activity against Homo sapiens (human) SK-MEL-2 cells after 48 hr by SRB assay; conditions: SK-MEL-2, 48 h
# [23] = system: UACC-62; assay: Anticancer activity against Homo sapiens (human) UACC62 cells after 48 hr by SRB assay; conditions: UACC-62, 48 h
# [24] = system: UACC-62; assay: Anticancer activity against Homo sapiens (human) UACC62 cells assessed as cell growth promotion at 10 uM after 48 hr by SRB assay
# [25] = system: MDA-MB-435; assay: Anticancer activity against Homo sapiens (human) MDA-MB-435 cells after 48 hr by SRB assay; conditions: MDA-MB-435, 48 h
# [26] = system: HT-29; assay: Anticancer activity against Homo sapiens (human) HT-29 cells after 48 hr by SRB assay; conditions: HT-29, 48 h
# [27] = system: NCI-H460; assay: Anticancer activity against Homo sapiens (human) NCI-H460 cells after 48 hr by SRB assay; conditions: NCI-H460, 48 h
# [28] = system: MDA-MB-468; assay: Anticancer activity against Homo sapiens (human) MDA-MB-468 cells assessed as cell growth promotion at 10 uM after 48 hr by SRB assay
# [29] = system: IGROV-1; assay: Anticancer activity against Homo sapiens (human) IGROV1 cells assessed as cell growth promotion at 10 uM after 48 hr by SRB assay
# [30] = system: KM12; assay: Anticancer activity against Homo sapiens (human) KM12 cells after 48 hr by SRB assay; conditions: KM12, 48 h
# [31] = system: SN12C; assay: Anticancer activity against Homo sapiens (human) SN12C cells assessed as cell growth promotion at 10 uM after 48 hr by SRB assay
# [32] = system: NCI/ADR-RES; assay: Anticancer activity against Homo sapiens (human) NCI/ADR-RES cells assessed as cell growth promotion at 10 uM after 48 hr by SRB assay
# [33] = system: OVCAR-3; assay: Anticancer activity against Homo sapiens (human) OVCAR3 cells after 48 hr by SRB assay; conditions: OVCAR-3, 48 h
# [34] = system: A498; assay: Anticancer activity against Homo sapiens (human) A498 cells assessed as cell growth promotion at 10 uM after 48 hr by SRB assay
# [35] = system: HOP-62; assay: Anticancer activity against Homo sapiens (human) HOP62 cells assessed as cell growth promotion at 10 uM after 48 hr by SRB assay
# [36] = read-out: LC50 (the source's name)
structure (smiles),measurement,setting,value
Cc1ccc(Nn2c(SCC(=O)Nc3nc(-c4ccccc4)cs3)nc(C)c2C)cc1,Activity,[1],60.88%
same,Activity,[2],40.22%
same,GI50,[3],4.06 µM
same,LC50 (concentration killing 50% of cells),[3],> 100 µM
same,TGI,[3],62.9 µM
same,Activity,[4],77.24%
same,Activity,[5],38.33%
same,GI50,[6],4.41 µM
same,LC50 (lethal concentration 50),[6],> 100 µM
same,TGI,[6],> 100 µM
same,Activity,[7],57.71%
same,GI50,[8],3.79 µM
same,TGI,[8],> 100 µM
same,CC50,[8]; [36],> 100 µM
same,GI50,[9],18.9 µM
same,LC50 (50% lethal concentration),[9],> 100 µM
same,TGI,[9],> 100 µM
same,Activity,[10],63.8%
same,GI50,[11],3.2 µM
same,LC50 (concentration killing 50% of cells),[11],63 µM
same,TGI,[11],14.2 µM
same,Activity,[12],91.96%
same,Activity,[13],54.72%
same,Activity,[14],46.29%
same,Activity,[15],66.75%
same,GI50,[16],2.48 µM
same,TGI,[16],13.6 µM
same,CC50,[16]; [36],> 100 µM
same,Activity,[17],46.34%
same,GI50,[18],10.6 µM
same,LC50 (50% lethal concentration),[18],> 100 µM
same,TGI,[18],> 100 µM
same,GI50,[19],1.7 µM
same,LC50,[19],> 100 µM
same,TGI,[19],6.67 µM
same,Activity,[20],46.1%
same,Activity,[21],61.47%
same,GI50,[22],7.58 µM
same,LC50 (concentration killing 50% of cells),[22],> 100 µM
same,TGI,[22],35.3 µM
same,GI50,[23],3.15 µM
same,LC50,[23],> 100 µM
same,TGI,[23],> 100 µM
same,Activity,[24],51.82%
same,GI50,[25],2.66 µM
same,LC50 (concentration killing 50% of cells),[25],> 100 µM
same,TGI,[25],9.54 µM
same,GI50,[26],4.37 µM
same,LC50,[26],> 100 µM
same,TGI,[26],28.2 µM
same,GI50,[27],3.88 µM
same,LC50,[27],83.3 µM
same,TGI,[27],16.5 µM
same,Activity,[28],17.71%
same,Activity,[29],86%
same,GI50,[30],4.13 µM
same,LC50 (concentration killing 50% of cells),[30],> 100 µM
same,TGI,[30],19.1 µM
same,Activity,[31],64.31%
same,Activity,[32],34.4%
same,GI50,[33],8.24 µM
same,LC50 (50% lethal concentration),[33],> 100 µM
same,TGI,[33],> 100 µM
same,Activity,[34],92.54%
same,Activity,[35],67.17%
